Experimental data from US20170014477A1, “FREE RAPTOR REDUCES AGING- AND OBESITY-INDUCED FATTY LIVER” (The Trustees of Columbia University in the City of New York, priority 2015, published 2017).

What was measured:
PHLPP2 [1] = experiment: Western blot of PHLPP2 levels in primary hepatocytes / Hepa1c1c7 cells; format: cell-based, mouse; settings: short- or long-term treatment, Rapamycin (20 nM), Torin1 (250 nM)
From the text: The GFP, Raptor and PHLPP1/2 adenoviruses have been described (Miyamoto et al., 2010; Pajvani et al., 2013). The HA-Flag-PHLPP2 adenovirus was constructed by inserting a Flag sequence into HA-PHLPP2 vector (Addgene #22403, courtesy of Alexandra Newton) and adenoviruses encoding HA-Flag-PHLPP2 generated by Welgen, Inc. (Worcester, Mass.). Mouse shPhlpp1 or 2 target sequences were selected among three candidate sequences, respectively and adenoviruses encoding shPhlpp1 or 2 generated by Welgen, Inc. For in vivo studies, we injected […] or 2.5×10^8 purified viral particles per g body weight; we performed metabolic analysis on days 3-5 and euthanized the mice at day 8 or 10 after injection. Infection with adenovirus in primary hepatocytes or Hepa1c1c7 cells was performed at 2.5, 5, or 10 multiplicity of infection (MOI).
We isolated and cultured primary mouse hepatocytes as previously described (Kim et al., 2012). For inhibitor experiments, we treated hepatocytes with 20 nM rapamycin (Cell Signaling), 250 nM Torin1, or vehicle for either 1 h or 24 h.
Tissues and cells were lysed in 0.3% CHAPS lysis buffer (Kim et al., 2002) unless otherwise stated, and whole cell lysates obtained by centrifugation. […]

free Raptor = experiment: DSS crosslinking assay for free Raptor in hepatocytes and hepatoma cells; format: cell-based, mouse
Protocol: Liver was lysed in 1% Triton X-100 lysis buffer (Kim et al., 2002) with or without 2.5 mg/ml DSP or DSS, and incubated for 2 h on ice. Crosslinking was quenched with 1 M Tris-HCl (pH 7.5) for 30 min on ice. For in vitro crosslinking assays, DSP or DSS were added to a final concentration of 1 mg/ml culture medium, and quenched by Tris-HCl as above. Equal protein (BCA assay, Thermo) was then subjected to Western blot, with or without IP.

PHLPP2 [2] = experiment: PHLPP2 phosphorylation (Phos-tag mobility shift; IP and phospho-PKA substrate immunoblot) in hepatocytes; format: cell-based, mouse
From the text: To investigate the effect of PKA on PHLPP2 phosphorylation in primary hepatocytes, either WT or S1119/1210A mutant of PHLPP2 was immunoprecipitated from cell extracts treated with glucagon or forskolin, and then subjected to immunoblot analysis with an antibody specific for phosphorylated PKA substrate proteins.

[3] = target: T1, PH domain leucine-rich repeat protein phosphatase 2 (PHLPP2), endogenous (mouse, UniProt Q8BXA7 1-1320); experiment: anti-PHLPP2 IP from primary hepatocytes and Hepa1c1c7 cells with or without MG-132, Western blot (FIG. 19i, FIG. 28j)
T1 construct: Endogenous protein, immunoprecipitated with anti-PHLPP2 or co-precipitated with anti-Akt; also called endogenous PHLPP2
T1 sequence (looked up): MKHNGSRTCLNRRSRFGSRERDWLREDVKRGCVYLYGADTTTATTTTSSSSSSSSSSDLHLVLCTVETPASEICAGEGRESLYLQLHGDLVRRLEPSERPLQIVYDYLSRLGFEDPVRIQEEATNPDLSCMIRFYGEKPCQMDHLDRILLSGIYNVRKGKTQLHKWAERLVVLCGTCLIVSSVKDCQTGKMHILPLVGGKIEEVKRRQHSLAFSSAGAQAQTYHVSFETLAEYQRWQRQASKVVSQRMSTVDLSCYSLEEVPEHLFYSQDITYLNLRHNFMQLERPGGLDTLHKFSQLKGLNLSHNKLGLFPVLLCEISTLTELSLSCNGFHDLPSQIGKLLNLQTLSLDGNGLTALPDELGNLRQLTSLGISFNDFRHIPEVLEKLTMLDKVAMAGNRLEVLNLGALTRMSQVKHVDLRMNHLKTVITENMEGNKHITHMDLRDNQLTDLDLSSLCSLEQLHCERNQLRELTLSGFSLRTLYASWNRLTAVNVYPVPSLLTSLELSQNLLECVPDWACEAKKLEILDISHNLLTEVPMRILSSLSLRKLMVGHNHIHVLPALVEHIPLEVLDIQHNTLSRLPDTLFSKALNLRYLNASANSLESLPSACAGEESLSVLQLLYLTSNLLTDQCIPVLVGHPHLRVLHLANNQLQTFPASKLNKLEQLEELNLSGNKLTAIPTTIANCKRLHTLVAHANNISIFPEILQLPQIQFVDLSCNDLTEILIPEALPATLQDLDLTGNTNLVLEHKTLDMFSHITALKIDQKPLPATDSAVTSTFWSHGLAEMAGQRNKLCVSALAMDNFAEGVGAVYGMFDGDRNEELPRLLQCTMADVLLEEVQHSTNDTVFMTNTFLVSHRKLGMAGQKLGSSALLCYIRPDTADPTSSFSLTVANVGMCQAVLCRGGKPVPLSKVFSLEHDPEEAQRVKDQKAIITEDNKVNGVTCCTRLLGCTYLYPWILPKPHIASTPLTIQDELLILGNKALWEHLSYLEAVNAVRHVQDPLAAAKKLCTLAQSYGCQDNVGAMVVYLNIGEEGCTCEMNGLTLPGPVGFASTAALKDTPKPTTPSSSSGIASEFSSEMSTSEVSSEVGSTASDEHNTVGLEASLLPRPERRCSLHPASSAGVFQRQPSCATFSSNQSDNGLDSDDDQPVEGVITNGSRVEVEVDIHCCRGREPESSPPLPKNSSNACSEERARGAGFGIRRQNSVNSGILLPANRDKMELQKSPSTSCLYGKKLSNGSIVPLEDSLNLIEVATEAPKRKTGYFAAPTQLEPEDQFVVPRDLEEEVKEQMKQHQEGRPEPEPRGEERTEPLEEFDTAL

CCC(=O)N1CCN(c2ccc(-n3c(=O)ccc4cnc5ccc(-c6cnc7ccccc7c6)cc5c43)cc2C(F)(F)F)CC1 [Torin1]
decrease of basal or Raptor-increased PHLPP2 levels (PHLPP2 [1]): neither

insulin
free Raptor levels (free Raptor; brief exposure): ineffectual
free Raptor levels (free Raptor; prolonged high-dose treatment to induce insulin resistance, primary hepatocytes or Hepa1c1c7 cells): reduced

glucagon
PKA-mediated phosphorylation of WT PHLPP2 (PHLPP2 [2]; primary hepatocytes, IP, phosphorylated PKA substrate antibody, not S1119A/S1210A mutant): robustly increased

O=S(=O)(NCCNC/C=C/c1ccc(Br)cc1)c1cccc2cnccc12 [H89]
forskolin-mediated PHLPP2 phosphorylation (PHLPP2 [2]; pretreatment with PKA inhibitor): reduced

B1: β-TrCP (beta-transducin repeat-containing protein) (other, mouse, UniProt Q3ULA2 1-605, looked up)
chain: MDPAEAVLQEKALKFMCSMPRSLWLGCSSLADSMPSLRCLYNPGTGALTAFQNSSEREDCNNGEPPRKIIPEKNSLRQTYNSCARLCINQETVCLTSTAMKTENCVAKAKLANGTSSMIVPKQRKLSASYEKEKELCVKYFEQWSESDQVEFVEHLISQMCHYQHGHINSYLKPMLQRDFITALPARGLDHIAENILSYLDAKSLCAAELVCKEWYRVTSDGMLWKKLIERMVRTDSLWRGLAERRGWGQYLFKNKPPDENAPPNSFYRALYPKIIQDIETIESNWRCGRHSLQRIHCRSETSKGVYCLQYDDQKIVSGLRDNTIKIWDKSTLECKRILTGHTGSVLCLQYDERVIITGSSDSTVRVWDVNAGEMLNTLIHHCEAVLHLRFNNGMMVTCSKDRSIAVWDMASPTDITLRRVLVGHRAAVNVVDFDDKYIVSASGDRTIKVWNTSTCEFVRTLNGHKRGIACLQYRDRLVVSGSSDNTIRLWDIECGACLRVLEGHEELVRCIRFDNKRIVSGAYDGKIKVWDLMAALDPRAPAGTLCLRTLVEHSGRVFRLQFDEFQIVSSSHDDTILIWDFLNDPAAHAEPPRSPSRTYTYISR
notes: E3 ligase substrate recognition subunit of the SCF complex; endogenous protein in mouse cells
binding result [3]: binds
